Data taken from ChEMBL document CHEMBL6109087, “Design and synthesis of azole derivatives of echinocystic acid as α-glucosidase inhibitors with hypoglycemic activity” (Eur J Med Chem, 2025).
Active and inactive are the calls of the source. The rule behind the calls is not given here.

Tests used:
[1] = Acute toxicity in C57BL/6J mouse assessed as change in serum ALT level at 0.5 g/Kg single dose; settings: in vivo, 500 mg/kg
[2] = Acute toxicity in C57BL/6J mouse assessed as change in serum ALB level at 0.5 g/Kg single dose; settings: in vivo, 500 mg/kg
Mus musculus [3] = assay: Reduction in blood glucose concentration in male C57BL/6J mouse assessed as peak blood glucose and glucose AUC preadministered for 30 mins via gavage followed by treated 2 g/Kg of sucrose and measured up to 120 mins post sucrose challenge by sucrose loading test; type: functional, organism-based; settings: dose 100.0 mg/kg, time 150.0 min
Alpha-glucosidase [4] = target: T1, Alpha-glucosidase (Saccharomyces cerevisiae S288c, UniProt P53341+P38158+P07265); assay: Binding affinity to alpha-glucosidase assessed as inhibition constant; type: protein assay
Mus musculus [5] = assay: In vivo hypoglycemic effect in STZ-induced diabetic C57BL/6J mouse model assessed as decrease in postprandial blood glucose at 100 mg/kg treated via gavage measured up to 120 mins by Oral glucose tolerance test (OGTT); type: functional, organism-based
[6] = Acute toxicity in C57BL/6J mouse assessed as pathological damages in spleen at 0.5 g/Kg single dose by HE staining based analysis; type: tissue-based; settings: in vivo, 500 mg/kg
[7] = Toxicity in STZ-induced diabetic C57BL/6J mouse model assessed as body weight at 100 mg/kg treated via gavage measured after 7 days; type: organism-based; settings: in vivo, po, 168 h, time 7 day
[8] = Acute toxicity in C57BL/6J mouse assessed as pathological damages in brain at 0.5 g/Kg single dose by HE staining based analysis; type: tissue-based; settings: in vivo, 500 mg/kg
Mus musculus [9] = assay: Reduction in triglycerides (TG) level in STZ-induced diabetic C57BL/6J mouse model treated via gavage by blood biochemistry index test; type: functional, organism-based; settings: dose 25-100 mg/kg
[10] = Acute toxicity in C57BL/6J mouse assessed as pathological damages in lung at 0.5 g/Kg single dose by HE staining based analysis; type: tissue-based; settings: in vivo, 500 mg/kg
[11] = Acute toxicity in C57BL/6J mouse assessed as pathological damages in liver at 0.5 g/Kg single dose by HE staining based analysis; type: tissue-based; settings: in vivo, 500 mg/kg
[12] = Acute toxicity in C57BL/6J mouse assessed as pathological damages in heart at 0.5 g/Kg single dose by HE staining based analysis; type: tissue-based; settings: in vivo, 500 mg/kg
[13] = Acute toxicity in C57BL/6J mouse assessed as change in serum BUN level at 0.5 g/Kg single dose; settings: in vivo, 500 mg/kg
[14] = target: T2, Alpha-glucosidase (Saccharomyces cerevisiae S288c) (UniProt P53341+P38158+P07265); assay: Binding affinity to alpha-glucosidase assessed as quenching by measuring decrease in fluorescent intensity at 0 to 8 uM; type: protein assay; settings: dose 0-8 µM
Mus musculus [15] = assay: Reduction in low density lipoproteins (LDL) level in STZ-induced diabetic C57BL/6J mouse model treated via gavage by blood biochemistry index test; type: functional, organism-based
Alpha-glucosidase [16] = target: T1, Alpha-glucosidase; assay: Binding affinity to alpha-glucosidase assessed as inhibition constant for protein substrate (alpha-Glu-pNPG) complex; type: protein assay
Mus musculus [17] = assay: Anti-oxidant effect in level in STZ-induced diabetic C57BL/6J mouse model assessed as […] in catalase (CAT) level in serum at 100 mg/kg treated via gavage; type: functional, organism-based
[18] = target: T2, Alpha-glucosidase (Saccharomyces cerevisiae S288c); assay: Binding affinity to alpha-glucosidase assessed as quenching by measuring decrease in fluorescent intensity by […] fluorescence spectroscopy; type: protein assay
Mus musculus [19] = assay: Induction of high density lipoproteins (HDL) level in STZ-induced diabetic C57BL/6J mouse model treated via gavage by blood biochemistry index test; type: functional, organism-based
[20] = Acute toxicity in C57BL/6J mouse assessed as pathological damages in kidney at 0.5 g/Kg single dose by HE staining based analysis; type: tissue-based; settings: in vivo, 500 mg/kg
[21] = target: T2, Alpha-glucosidase (Saccharomyces cerevisiae S288c); assay: Mixed-type of inhibition at alpha-glucosidase assessed as decrease in Km by Lineweaver-Burk plot analysis; type: protein assay
[22] = target: T2, Alpha-glucosidase (Saccharomyces cerevisiae S288c); assay: Binding affinity to alpha-glucosidase assessed as fluorescent intensity (lambda-ex/lambda-em 276/332 nm) by 3D fluorescence spectra; type: protein assay
Mus musculus [23] = assay: Anti-oxidant effect in level in STZ-induced diabetic C57BL/6J mouse model assessed as […] in total superoxide dismutase (T-SOD) level in serum at 100 mg/kg treated via gavage; type: functional, organism-based
Mus musculus [24] = assay: Reduction in total cholesterol (CHO) level in STZ-induced diabetic C57BL/6J mouse model treated via gavage by blood biochemistry index test; type: functional, organism-based
[25] = target: T2, Alpha-glucosidase (Saccharomyces cerevisiae S288c); assay: Mixed-type of inhibition at alpha-glucosidase assessed as decrease in Vmax by Lineweaver-Burk plot analysis; type: protein assay
Mus musculus [26] = assay: Anti-oxidant effect in level in STZ-induced diabetic C57BL/6J mouse model assessed as […] in malondialdehyde (MDA) level in serum at 100 mg/kg treated via gavage; type: functional, organism-based
[27] = Cytotoxicity against human LO2 cells assessed as cell viability measured after 24 hrs by MTT assay; type: toxicity, cell-based, L02
[28] = Acute toxicity in C57BL/6J mouse assessed as signs of death or toxicity at 0.5 g/Kg single dose monitored over 14 days; settings: in vivo, 500 mg/kg, 336 h, time 14 day
[29] = target: T2, Alpha-glucosidase (Saccharomyces cerevisiae S288c); assay: Binding affinity to alpha-glucosidase assessed as fluorescent intensity (lambda-ex/lambda-em 285/320 nm) by 3D fluorescence spectra; type: protein assay
[30] = Acute toxicity in C57BL/6J mouse assessed as change in serum AST level at 0.5 g/Kg single dose; settings: in vivo, 500 mg/kg
[31] = test system: alpha-glucosidase (unknown origin); assay: Selectivity index, ratio of CC50 for Cytotoxicity against human LO2 cells to IC50 for alpha-glucosidase (unknown origin); type: toxicity, cell-based, L02; settings: read-out: Selectivity Index
Mus musculus [32] = assay: In vivo hypoglycemic effect in STZ-induced diabetic C57BL/6J mouse model assessed as decrease in fasting blood glucose at 100 mg/kg treated via gavage measured after 7 days by fasting blood glucose test; type: functional, organism-based; settings: time 7.0 day
[33] = target: T2, Alpha-glucosidase (Saccharomyces cerevisiae S288c); assay: Inhibition of alpha-glucosidase using 4-Nitrophenyl-[…]-D-glucopyranoside (pNPG) as substrate assessed as inhibition rate at 30 uM relative control; type: protein assay
Alpha-glucosidase [34] = target: T1, Alpha-glucosidase; assay: Inhibition of alpha-glucosidase using 4-Nitrophenyl-[…]-D-glucopyranoside (pNPG) as substrate; type: protein assay
Mus musculus [35] = assay: Anti-oxidant effect in level in STZ-induced diabetic C57BL/6J mouse model assessed as […] in glutathione (GSH) level in serum at 100 mg/kg treated via gavage; type: functional, organism-based

## CC1(C)CC[C@]2(C(=O)NCc3cn(-c4ccc(Cl)c(Cl)c4)nn3)[C@H](O)C[C@]3(C)C(=CC[C@@H]4[C@@]5(C)CC[C@H](O)C(C)(C)[C@@H]5CC[C@]43C)[C@@H]2C1
[1]
  Activity: Non-toxic
[2]
  Activity: Non-toxic
Mus musculus [3]
  Activity: Dose-dependent-effect; Compound Showed Comparable Effect To Acarbose
Alpha-glucosidase [4]
  Ki: 15.31 µM
Mus musculus [5]
  Activity: Active; Evidenced By Compound Showed Lower Auc Compared With Model Group
[6]
  Activity: Non-toxic
[7]
  Activity: Non-toxic
[8]
  Activity: Non-toxic
Mus musculus [9]
  Activity: Dose-dependent-effect
[10]
  Activity: Non-toxic
[11]
  Activity: Non-toxic
[12]
  Activity: Non-toxic
[13]
  Activity: Non-toxic
[14]
  Activity: Active
Mus musculus [15]
  Activity: Dose-dependent-effect
Alpha-glucosidase [16]
  Ki: 10.23 µM
Mus musculus [17]
  Activity: Active
[18]
  Activity: Active
Mus musculus [19]
  Activity: Dose-dependent-effect
[20]
  Activity: Non-toxic
[21]
  inhibition: Active
[22]
  Activity: Active
Mus musculus [23]
  Activity: Active
Mus musculus [24]
  Activity: Dose-dependent-effect
[25]
  inhibition: Active
Mus musculus [26]
  Activity: Active
[27]
  CC50 at 24 h: 287 µM
[28]
  Activity: Non-toxic
[29]
  Activity: Active
[30]
  Activity: Non-toxic
[31]
  selectivity ratio: 105
Mus musculus [32]
  Activity: Active
[33]
  inhibition: 88.1%
Alpha-glucosidase [34]
  IC50: 2.72 µM
Mus musculus [35]
  Activity: Active
